Source: patent publication US8420657B2 (Novartis AG, priority 2008, dated 2013)

Assays:
[1] = system: JAK1/JAK2-dependent nuclear translocation of STAT1-GFP in HT1080 fibrosarcoma cells; assay: STAT1 nuclear translocation assay (Cellomics), IFN-γ stimulated HT1080 STAT1-GFP cells; type: cell-based; settings: Homo sapiens, HT-1080, STAT1 translocation pathway
Procedure, shortened: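 HT1080 cells stably expressing STAT1-GFP, pre-treated 30 min with compound (10 μM–0.003 μM, 0.1% DMSO), then stimulated 2 h with 100 ng/ml IFN-γ, fixed and Hoechst-stained. Nuclear-cytoplasmic GFP differential imaged over ≥1000 cells/well, normalised to unstimulated and DMSO-stimulated wells for IC50.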

GST-JAK2(808-1132) = target: T1, GST-JAK2(808-1132) (Homo sapiens, UniProt O60674); assay: JAK2 kinase assay (Caliper mobility shift, LabChip 3000); type: biochemical
T1 construct: GST-JAK2(808-1132); purchased Invitrogen (Carlsbad, USA) #4288
T1 sequence (O60674 808-1132): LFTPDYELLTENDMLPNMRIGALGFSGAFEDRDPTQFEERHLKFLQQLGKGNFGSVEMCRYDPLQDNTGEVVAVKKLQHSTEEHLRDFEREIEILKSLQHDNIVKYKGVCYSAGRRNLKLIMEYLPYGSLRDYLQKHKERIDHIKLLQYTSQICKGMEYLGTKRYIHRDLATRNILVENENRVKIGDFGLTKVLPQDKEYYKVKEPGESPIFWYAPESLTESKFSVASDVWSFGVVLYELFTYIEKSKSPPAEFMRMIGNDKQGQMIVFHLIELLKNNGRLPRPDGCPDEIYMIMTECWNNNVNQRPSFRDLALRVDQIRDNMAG
Procedure, shortened: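 Recombinant GST-JAK2(808-1132) kinase domain with FITC-labelled JAK3tide peptide substrate and ATP; 60 min at 30 °C, EDTA stop. Substrate/product ratio read by microfluidic mobility shift; compounds at 8 final concentrations, 10 to 0.003 μM.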

IC50 [1] [nM]	IC50 (GST-JAK2(808-1132)) [nM]	SMILES
120	14	COc1cc(Nc2ncc3ccn(-c4cc(F)c(CN5CCOCC5)c(F)c4)c3n2)ccc1C [Example 307, [7-(3,5-Difluoro-4-morpholin-4-ylmethyl-phenyl)-7H-pyrrolo[2,3-d]pyrimidin-2-yl]-(3-methoxy-4-methyl-phenyl)-amine]
15	< 3	COc1cc(Nc2ncc3ccn(-c4cc(F)c(CN5CCS(=O)(=O)CC5)c(F)c4)c3n2)ccc1C [Example 308, {7-[4-(1,1-Dioxido-thiomorpholin-4-ylmethyl)-3,5-difluoro-phenyl]-7H-pyrrolo[2,3-d]pyrimidin-2-yl}-(3-methoxy-4-methyl-phenyl)-amine]
4160	780	Cc1ccc(Nc2ncc3ccn(-c4cc(F)c(CN5CCOCC5(C)C)c(F)c4)c3n2)cc1C [Example 309, {7-[4-(3,3-Dimethyl-morpholin-4-ylmethyl)-3,5-difluoro-phenyl]-7H-pyrrolo[2,3-d]pyrimidin-2-yl}-(3,4-dimethyl-phenyl)-amine]
570	6.4	Cc1ccc(Nc2ncc3ccn(-c4cc(F)c(CN5CCN(C)C(=O)C5)c(F)c4)c3n2)cc1C [Example 310, 4-{4-[2-(3,4-Dimethyl-phenylamino)-pyrrolo[2,3-d]pyrimidin-7-yl]-2,6-difluoro-benzyl}-1-methyl-piperazin-2-one]
565	13	Cc1ccc(Nc2ncc3ccn(-c4cc(F)c(CN5CCNC(=O)C5)c(F)c4)c3n2)cc1C [Example 312, 4-{4-[2-(3,4-Dimethyl-phenylamino)-pyrrolo[2,3-d]pyrimidin-7-yl]-2,6-difluoro-benzyl}-piperazin-2-one]
530	3.9	Cc1ccc(Nc2ncc3ccn(-c4ccc(S(C)(=O)=O)cc4)c3n2)cc1CN1CCNCC1 [Example 333, [7-(4-Methanesulfonyl-phenyl)-7H-pyrrolo[2,3-d]pyrimidin-2-yl]-(4-methyl-3-piperazin-1-ylmethyl-phenyl)-amine]
260	≤ 3	Cc1ccc(Nc2ncc3ccn(-c4cc(F)c(CN5CCOCC5)c(F)c4)c3n2)cc1CN1CCNC(=O)C1 [Example 334, 4-{5-[7-(3,5-Difluoro-4-morpholin-4-ylmethyl-phenyl)-7H-pyrrolo[2,3-d]pyrimidin-2-ylamino]-2-methyl-benzyl}-piperazin-2-one]
360	9.3	CN1CCN(Cc2ccc(Nc3ncc4ccn(-c5ccc(S(C)(=O)=O)cc5)c4n3)cc2)CC1=O [Example 335, 4-{4-[7-(4-Methanesulfonyl-phenyl)-7H-pyrrolo[2,3-d]pyrimidin-2-ylamino]-benzyl}-1-methyl-piperazin-2-one]
205	3.6	Cc1ccc(Nc2ncc3ccn(-c4ccc(C(=O)N5CCOCC5)c(F)c4)c3n2)cc1CN1CCNCC1 [Example 336, {2-Fluoro-4-[2-(4-methyl-3-piperazin-1-ylmethyl-phenylamino)-pyrrolo[2,3-d]pyrimidin-7-yl]-phenyl}-morpholin-4-yl-methanone]
185	6.1	CN1CCN(Cc2ccc(Nc3ncc4ccn(-c5ccc(C(=O)N6CCOCC6)c(F)c5)c4n3)cc2)CC1=O [Example 337, 4-(4-{7-[3-Fluoro-4-(morpholine-4-carbonyl)-phenyl]-7H-pyrrolo[2,3-d]pyrimidin-2-ylamino}-benzyl)-1-methyl-piperazin-2-one]
135	3.9	CC(=O)N1CCN(Cc2ccc(Nc3ncc4ccn(-c5ccc(C(=O)N6CCOCC6)cc5)c4n3)cc2)CC1 [Example 338, 1-[4-(4-{7-[4-(Morpholine-4-carbonyl)-phenyl]-7H-pyrrolo[2,3-d]pyrimidin-2-ylamino}-benzyl)-piperazin-1-yl]-ethanone]
285	3.7	CC(=O)N1CCN(Cc2ccc(Nc3ncc4ccn(-c5cc(F)c(CN6CCNC(=O)C6)c(F)c5)c4n3)cc2)CC1 [Example 339, 4-(4-{2-[4-(4-Acetyl-piperazin-1-ylmethyl)-phenylamino]-pyrrolo[2 3-d]pyrimidin-7-yl}-2,6-difluoro-benzyl)-piperazin-2-one]
270	7.2	O=C1CN(Cc2c(F)cc(-n3ccc4cnc(Nc5ccc(CN6CCN(C7CC7)CC6)cc5)nc43)cc2F)CCN1 [Example 340, 4-(4-{2-[4-(4-Cyclopropyl-piperazin-1-ylmethyl)-phenylamino]-pyrrolo[2,3-d]pyrimidin-7-yl}-2,6-difluoro-benzyl)-piperazin-2-one]
479	≤ 3	C[C@@H]1CN(c2ccc(Nc3ncc4ccn(-c5cc(F)c(CN6CCNC(=O)C6)c(F)c5)c4n3)cn2)C[C@H](C)N1 [Example 342, 4-(4-{2-[6-(cis-3,5-Dimethyl-piperazin-1-yl)-pyridin-3-ylamino]-pyrrolo[2,3-d]pyrimidin-7-yl}-2,6-difluoro-benzyl)-piperazin-2-one]
151	≤ 3	Cc1ccc(Nc2ncc3ccn(-c4cc(F)c(CN5CCNC(=O)C5)c(F)c4)c3n2)cc1CN1CCN(C)CC1 [Example 343, 4-(2,6-Difluoro-4-{2-[4-methyl-3-(4-methyl-piperazin-1-ylmethyl)-phenylamino]-pyrrolo[2,3-d]pyrimidin-7-yl}-benzyl)-piperazin-2-one]
45	≤ 3	C[C@@H]1CN(c2ccc(Nc3ncc4ccn(-c5cc(F)c(CN6CCS(=O)(=O)CC6)c(F)c5)c4n3)cn2)C[C@H](C)N1 [Example 441, [6-(cis-3,5-Dimethyl-piperazin-1-yl)-pyridin-3-yl]-{7-[4-(1,1-dioxido-thiomorpholin-4-ylmethyl)-3,5-difluoro-phenyl]-7H-pyrrolo[2,3-d]pyrimidin-2-yl}-amine]
9.5	≤ 3	CN1CCN(c2ccc(Nc3ncc4ccn(-c5cc(F)c(CN6CCS(=O)(=O)CC6)c(F)c5)c4n3)cn2)CC1 [Example 443, {7-[4-(1,1-Dioxido-thiomorpholin-4-ylmethyl)-3,5-difluoro-phenyl]-7H-pyrrolo[2,3-d]pyrimidin-2-yl}-[6-(4-methyl-piperazin-1-yl)-pyridin-3-yl]-amine]
90	≤ 3	O=S1(=O)CCN(Cc2c(F)cc(-n3ccc4cnc(Nc5ccc(N6CCNCC6)nc5)nc43)cc2F)CC1 [Example 444, {7-[4-(1,1-Dioxido-thiomorpholin-4-ylmethyl)-3,5-difluoro-phenyl]-7H-pyrrolo[2,3-d]pyrimidin-2-yl}-(6-piperazin-1-yl-pyridin-3-yl)-amine]
2890	8	CC(C)Oc1ccc(Nc2ncc3ccn(-c4ccc(C(=O)N5CCOCC5)cc4F)c3n2)cc1 [Example 522, {3-Fluoro-4-[2-(4-isopropoxy-phenylamino)-pyrrolo[2,3-d]pyrimidin-7-yl]-phenyl}-morpholin-4-yl-methanone]
